What was measured:
human ALK2 R206H = molecular target: T1, human ALK2 R206H (Homo sapiens, UniProt Q04771, R206H); assay: Cell-based ALK2-R206H cell activity assay (Smad1-Ser463/Ser465 phosphorylation by AlphaLISA in HEK293-ALK2-R206H cells); conditions: read-out: Cell Line (Cell Assay IC50)
T1 construct: expressed in transfected cells; host or cells: HEK293 (ATCC CRL1573), lentivirus transduction, blasticidin selection
T1 sequence (Q04771 21-509 R206H): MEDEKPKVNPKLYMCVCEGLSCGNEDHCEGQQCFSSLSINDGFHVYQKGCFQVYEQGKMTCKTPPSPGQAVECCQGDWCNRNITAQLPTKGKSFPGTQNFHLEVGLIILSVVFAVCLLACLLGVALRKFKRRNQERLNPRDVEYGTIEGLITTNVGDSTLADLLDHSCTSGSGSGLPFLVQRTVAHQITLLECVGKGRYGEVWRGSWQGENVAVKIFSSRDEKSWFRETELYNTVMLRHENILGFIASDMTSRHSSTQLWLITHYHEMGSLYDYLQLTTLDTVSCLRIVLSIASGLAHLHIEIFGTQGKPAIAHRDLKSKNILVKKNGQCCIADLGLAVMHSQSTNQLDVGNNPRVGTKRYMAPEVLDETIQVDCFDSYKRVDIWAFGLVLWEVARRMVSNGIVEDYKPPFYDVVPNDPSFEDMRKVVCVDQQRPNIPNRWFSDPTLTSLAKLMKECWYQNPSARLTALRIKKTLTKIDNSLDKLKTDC
Outline: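 Stable HEK293 cells expressing C-terminally FLAG-tagged human ALK2 R206H (lentiviral, blasticidin-selected) were treated with compounds in 10-point, 3-fold dilutions from 10 μM or 1 μM top, in duplicate. Smad1 Ser463/Ser465 phosphorylation was read by AlphaLISA.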

[1] = molecular target: T2, ALK2 R206H (GST-tagged mutant ALK2) (Homo sapiens, UniProt Q04771, R206H); assay: ALK binding assay (LANTHASCREEN TR-FRET competitive binding, displacement of Kinase Tracer 178); conditions: ALK2 R206H, LANTHASCREEN TR-FRET competitive binding; read-out: Binding Assay (IC50)
T2 construct: purchased Carna Bioscience or ThermoFisher 09-148 or PV6232
T2 sequence (Q04771 21-509 R206H): T1 sequence (Q04771 21-509 R206H)

| IC50 (human ALK2 R206H) | IC50 [1] | SMILES |
| --- | --- | --- |
| < 0.1 µM | < 0.01 µM | CO[C@]1(c2ccc(-c3cc4c(N5CCN(C(=O)C6CC6)CC5)ccnn4c3)cc2)CCN(C(C)C)C1 [Compound 572] |
| 0.1 to 0.5 µM | 0.01 to 0.05 µM | CCN1CC[C@@H](c2ccc(-c3cc4c(N5CCN(C(=O)C6CC6)CC5)ccnn4c3)cc2)C(F)C1 (some centres unmarked) [Compound 280] |
| < 0.1 µM | < 0.01 µM | CC(C)NC(=O)N1CCN(c2ccnn3cc(-c4ccc(C5(O)CN(C(C)C)C5)cc4)cc23)CC1 [Compound 540] |
| < 0.1 µM | < 0.01 µM | O=C(C1CC1)N1CCN(c2ccnn3cc(-c4ccc(C5COCCN5)cc4)cc23)CC1 (centres unmarked) [Compound 464] |
| 0.1 to 0.5 µM | < 0.01 µM | CC(C)N1CC[C@@H](c2ccc(-c3cc4c(N5CCN(C(=O)C6CC6)CC5)ccnn4c3)cc2F)C1 [Compound 283] |
| < 0.1 µM | < 0.01 µM | CCNC(=O)N1CCN(c2ccnn3cc(-c4ccc(C5CCN(C(C)C)CC5)cc4)cc23)C[C@H]1C [Compound 339] |
| < 0.1 µM | < 0.01 µM | CC(C)NC(=O)N1CCN(c2ccnn3cc(-c4ccc([C@@]5(C)CN(C(C)C)CCN5C)cc4)cc23)CC1 [Compound 672] |
| 0.1 to 0.5 µM | < 0.01 µM | CCN1CC(n2cc(-c3cc4c(N5CCN(C(=O)C6CC6)CC5)ccnn4c3)cn2)C1 [Compound 118] |
| < 0.1 µM | < 0.01 µM | CCNC(=O)N1CCN(c2ccnn3cc(-c4ccc(N5CCN(C(C)C)CC5)cc4)cc23)CC1 [Compound 289] |
| < 0.1 µM | < 0.01 µM | O=C(OC1COC1)N1CCN(c2ccnn3cc(-c4ccc([C@]5(F)CCCNC5)cc4)cc23)CC1 [Compound 558] |
| < 0.1 µM | < 0.01 µM | CC(C)N1CC[C@H](c2ccc(-c3cc4c(N5CCN(C(=O)[C@H]6CC[C@H](O)CC6)CC5)ccnn4c3)cc2)C1 [Compound 418] |
| < 0.1 µM | < 0.01 µM | O=C(C1CC1)N1CCN(c2ccnn3cc(-c4ccc(C5CNCCO5)cc4)cc23)CC1 (centres unmarked) [Compound 129] |
| < 0.1 µM | < 0.01 µM | O=C(C1CC1)N1CCN(c2ccnn3cc(-c4ccc(C5CN6CCSC6=N5)cc4)cc23)CC1 (centres unmarked) [Compound 515] |
| < 0.1 µM | < 0.01 µM | CCOC(=O)N1CCN(c2ccnn3cc(-c4ccc(C5CNCC5F)cc4)cc23)CC1 (centres unmarked) [Compound 145] |
| 0.1 to 0.5 µM | < 0.01 µM | COC1(c2ccc(-c3cc4c(N5CCN(C(=O)NC(C)C)CC5)ccnn4c3)nc2)CCNCC1 [Compound 785] |
| 0.1 to 0.5 µM | < 0.01 µM | CCOC(=O)N1CCN(c2ccnn3cc(-c4ccc(C5CNCCO5)cc4)cc23)CC1 (centres unmarked) [Compound 144] |
| < 0.1 µM | < 0.01 µM | COC1(c2ccc(-c3cc4c(N5CCN(C(=O)OC6COC6)CC5)ccnn4c3)cc2)CCNCC1 [Compound 599] |

| IC50 (human ALK2 R206H) | IC50 [1] | SMILES |
| --- | --- | --- |
| > 0.5 µM | 0.01 to 0.05 µM | CCN1CCN(c2ccc(-c3cc4c(N5CCN(C(=O)C6CC6)CC5)ccnn4c3)cc2)C(=O)C1 [Compound 259] |
| 0.1 to 0.5 µM | < 0.01 µM | O=C(C1CC1)N1CCN(c2ccnn3cc(-c4ccc(OC5CNC5)cc4)cc23)CC1 [Compound 115] |
| < 0.1 µM | < 0.01 µM | CCN1CC2(C1)CN(c1ccc(-c3cc4c(N5CCN(C(=O)C6CC6)CC5)ccnn4c3)cc1)C2 [Compound 241] |
| < 0.1 µM | < 0.01 µM | CC(C)N1CCCC(c2ccc(-c3cc4c(N5CCN(C(=O)[C@H]6C[C@H](O)C6)CC5)ccnn4c3)cc2)C1 (some centres unmarked) [Compound 381] |
| < 0.1 µM | < 0.01 µM | O=C(C1CC1)N1CCN(c2ccnn3cc(-c4ccc(OCC5CCN5)cc4)cc23)CC1 (centres unmarked) [Compound 132] |
| < 0.1 µM | < 0.01 µM | CC(C)NC(=O)N1CCN(c2ccnn3cc(-c4ccc([C@@H]5CCCN5)cn4)cc23)CC1 [Compound 466] |
| < 0.1 µM | < 0.01 µM | CC(C)N1CCC[C@H](c2ccc(-c3cc4c(N5CCN(C(=O)[C@H]6CC[C@H](C#N)CC6)CC5)ccnn4c3)cc2)C1 [Compound 435] |
| < 0.1 µM | < 0.01 µM | CC(C)N1CCC[C@H](c2ccc(-c3cc4c(N5CCN(C(=O)[C@H]6C[C@H](C#N)C6)CC5)ccnn4c3)nc2)C1 [Compound 654] |
| 0.1 to 0.5 µM | < 0.01 µM | CCOC(=O)N1CCN(c2ccnn3cc(-c4cnc(N5CCN(C(C)C)CC5)cn4)cc23)CC1 [Compound 448, ethyl 4-(6-(5-(4-isopropylpiperazin-1-yl)pyrazin-2-yl)pyrrolo[1,2-b]pyridazin-4-yl)piperazine-1-carboxylate] |
| < 0.1 µM | < 0.01 µM | CC(C)N1CCOCC1c1ccc(-c2cc3c(N4CCN(C(=O)C5CC5)CC4)ccnn3c2)cc1 (centres unmarked) [Compound 520] |
| 0.1 to 0.5 µM | < 0.01 µM | CC(C)NC(=O)N1CCN(c2ccnn3cc(-c4ccc(C5(F)CCNCC5)cc4)cc23)CC1 [Compound 499] |
| < 0.1 µM | < 0.01 µM | C[C@]1(c2ccc(-c3cc4c(N5CCN(C(=O)C6CC6)CC5)ccnn4c3)cc2)CCCN1 [Compound 459] |
| < 0.1 µM | < 0.01 µM | CCO[C@]1(c2ccc(-c3cc4c(N5CCN(C(=O)OC6COC6)CC5)ccnn4c3)nc2)CCCNC1 [Compound 818] |
| 0.1 to 0.5 µM | < 0.01 µM | O=C(C1CC1)N1CCN(c2ccnn3cc(-c4cnn(C5CNC5)c4)cc23)CC1 [Compound 100] |
| 0.1 to 0.5 µM | < 0.01 µM | CC(C)N1CCC[C@@H](c2ccc(-c3cc4c(N5CCN(C(=O)OC6(C)COC6)CC5)ccnn4c3)cc2)C1 [Compound 827] |
| < 0.1 µM | < 0.01 µM | CC(C)N1CCc2nc(-c3cc4c(N5CCN(C(=O)C6CC6)CC5)ccnn4c3)sc2C1 [Compound 191] |

| SMILES | IC50 (human ALK2 R206H) | IC50 [1] |
| --- | --- | --- |
| COC1(c2cnc(-c3cc4c(N5CCN(C(=O)NC(C)C)CC5)ccnn4c3)c(F)c2)CCN(C(C)C)CC1 [Compound 725] | < 0.1 µM | < 0.01 µM |
| CCNC(=O)N1CCN(c2ccnn3cc(-c4ccc(C5(OC)CCN(C(C)C)CC5)cn4)cc23)CC1 [Compound 644] | < 0.1 µM | < 0.01 µM |
| CCNC(=O)N1CCN(c2ccnn3cc(-c4ccc(C5(O)CCN(C(C)C)CC5)cc4)cc23)CC1 [Compound 352] | 0.1 to 0.5 µM | < 0.01 µM |
| CCOC1(c2ccc(-c3cc4c(N5CCN(C(=O)OC[C@H](C)F)CC5)ccnn4c3)nc2)CCN(C(C)C)CC1 [Compound 865] | < 0.1 µM | < 0.01 µM |
| CCOC1(c2ccc(-c3cc4c(N5CCN(C(=O)OC6COC6C)CC5)ccnn4c3)nc2)CCN(C(C)C)CC1 (centres unmarked) [Compound 879] | < 0.1 µM | < 0.01 µM |
| CCOC1(c2ccc(-c3cc4c(N5CCN(C(=O)O[C@H](C)CF)CC5)ccnn4c3)nc2)CCN(C(C)C)CC1 [Compound 864] | < 0.1 µM | < 0.01 µM |
| COC1(c2ccc(-c3cc4c(N5CCN(C(=O)C6CC6)CC5)ccnn4c3)nc2)CCN([C@H](C)COC(F)F)CC1 [Compound 885] | < 0.1 µM | < 0.01 µM |
| CCOC1(c2ccc(-c3cc4c(N5CCN(C(=O)OC6COC6)CC5)ccnn4c3)nc2)CCN(C2CC2)CC1 [Compound 855] | < 0.1 µM | < 0.01 µM |
| CC(C)NC(=O)N1CCN(c2ccnn3cc(-c4ccc(C5(C)CCN(C(C)C)CC5)cc4)cc23)CC1 [Compound 628] | < 0.1 µM | < 0.01 µM |
| COC1(c2ccc(-c3cc4c(N5CCN(C(=O)OC6COC6)CC5)ccnn4c3)c(C#N)c2)CCN(C(C)C)CC1 [Compound 873] | < 0.1 µM | < 0.01 µM |
